Measurements: the supplement of paper PMC10307832

Tests used:
Experiment in all cases: relative viability (nuclei count vs DMSO), 5 days (fraction); higher = more cells survive
[1] = compound: C1CC(C2=C(C1)C3=C(N2)C=CC(=C3)Cl)C(=O)N [Selisistat] + CS(=O)(=O)N1CCN(Cc2cc3nc(-c4cccc5[nH]ncc45)nc(N4CCOCC4)c3s2)CC1 [Pictilisib] (partner 1 µM)
Method in brief: (§1)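 Lung cancer cell lines, seeded in 1536-well plates, were treated the following day by pin tool with a single drug or with five library-drug doses (not always all listed) in √10 steps on top of a fixed anchor-drug dose. Cells were fixed and nuclei stained in one step after 5 days, and nuclei were counted. Relative viability is the nuclei count for treated wells divided by that for vehicle wells, reported as medians of duplicate plates.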

[2] = compound: C1CC(C2=C(C1)C3=C(N2)C=CC(=C3)Cl)C(=O)N [Selisistat] + CCNC(=O)c1noc(-c2cc(C(C)C)c(O)cc2O)c1-c1ccc(CN2CCOCC2)cc1 [Luminespib] (partner 0.01 µM)
Method in brief: as §1

[3] = compound: c1ccc2c(CCNc3ccc(Nc4ccncc4)cc3)c[nH]c2c1 [Serdemetan] + NC(=O)Nc1cc(-c2cccc(F)c2)sc1C(=O)N[C@H]1CCCNC1 [AZD7762] (partner 0.2 µM)
Method in brief: as §1

[4] = compound: c1ccc2c(CCNc3ccc(Nc4ccncc4)cc3)c[nH]c2c1 [Serdemetan] + COc1cccc2cc(-c3nc([C@H]4CC[C@H](C(=O)O)CC4)n4ncnc(N)c34)[nH]c12 [OSI-027] (partner 0.5 µM)
Method in brief: as §1

Cell Line	relative viability ([1]; first compound 0.4 µM)	relative viability ([1]; first compound 1.265 µM)	relative viability ([1]; first compound 4 µM)	relative viability ([1]; first compound 12.65 µM)	relative viability ([1]; first compound 40 µM)	relative viability ([2]; first compound 0.4 µM)	relative viability ([2]; first compound 1.265 µM)	relative viability ([2]; first compound 4 µM)	relative viability ([2]; first compound 12.65 µM)	relative viability ([2]; first compound 40 µM)	relative viability ([3]; first compound 0.04 µM)	relative viability ([3]; first compound 0.1265 µM)	relative viability ([3]; first compound 0.4 µM)	relative viability ([3]; first compound 1.265 µM)	relative viability ([3]; first compound 4 µM)	relative viability ([4]; first compound 0.04 µM)	relative viability ([4]; first compound 0.1265 µM)	relative viability ([4]; first compound 0.4 µM)	relative viability ([4]; first compound 4 µM)	relative viability ([4]; first compound 1.265 µM)
201T	0.69	0.648	0.58	0.673	0.685	1.14	1.12	0.983	1.04	1.01	0.624	0.502	0.846	0.378	0.422	0.584	0.676	0.76	0.664	
A549	0.605	0.478	0.525	0.55	0.449															
A-427	0.625	0.622	0.327	0.656	0.73	0.882	0.729	0.881	0.977	0.949	0.759	0.671	0.664	0.538	0.495	0.526	0.509	0.539	0.36	0.455
ABC-1	0.782	0.895	0.728	0.758	0.773	0.477	0.483			0.627	0.971	0.67	0.722		0.866	0.459	0.488	0.486	0.265	0.296
BEN	0.581	0.578	0.459	0.548	0.521	0.429	0.242	0.33	0.207	0.383	0.75	0.545	0.662	0.556	0.641	0.307	0.292	0.272	0.286	
CAL-12T	0.384	0.388		0.6	0.314	0.546	0.326	0.275	0.784	0.401	0.557	0.609	0.555	0.547	0.599	0.827	0.638	0.653	0.518	0.579
COR-L23	0.821	0.78	0.899	0.701	0.689	0.709	0.715	0.641	0.655	0.61						0.796	0.712	0.799	0.744	0.658
COR-L 105	0.432	0.412	0.322	0.405	0.418	0.464	0.608		0.909	0.775						0.749	0.649	0.452	0.71	0.722
Calu-6	0.867	0.886	0.895	0.872	0.925															
ChaGo-K-1	0.804	0.844		0.675	0.646	0.586	0.581	0.648	0.526	0.61	0.876	0.801	0.75	0.507	0.545	0.546	0.611	0.539	0.367	0.33
EBC-1	0.373	0.286	0.46	0.454	0.389															
EKVX	0.451	0.432	0.39	0.442	0.53	0.844	0.894	0.814	0.934	0.877	0.808	0.746			0.649	0.731	0.708	0.671	0.588	
EMC-BAC-2	0.551	0.53	0.477	0.577	0.524	1.12	1.07	1.14	1.17	1.08	1.08	1.1	1.07	0.955	0.827	0.368	0.383	0.392	0.355	0.268
EPLC-272H	0.261	0.337		0.287	0.332	0.213	0.409		0.32	0.197	0.245	0.217	0.221	0.221	0.215	0.285	0.355	0.296	0.272	0.248
H3255	0.508	0.41	0.481	0.494	0.532	0.807	0.79	0.948	0.773	0.819	0.826	0.601	0.733	0.832	0.792	0.587	0.675	0.613	0.518	0.573
HARA	0.492	0.366	0.348	0.307	0.401	0.909	1.02	0.846	0.584	1.04	0.298	0.196	0.266	0.23	0.304	0.528	0.703	0.395	0.304	0.274
HCC-15	0.813	0.775		0.814	0.793	0.329	0.205		0.373	0.319	0.952	1.49	1.23	0.72	1.07	0.643	0.75	0.624	0.522	0.452
HCC-44	0.633	0.551	0.595	0.599	0.436	1.05			1.12	1.16	0.921	1.01	0.994	0.936	0.934	0.482	0.498	0.598	0.452	0.429
HCC-78	0.253	0.229	0.172	0.196	0.181						0.578	0.571	0.514	0.589	0.503	0.401	0.297	0.321	0.289	0.308
HCC-366	0.098	0.135	0.129	0.0936	0.207						0.124	0.0954	0.0688	0.0374	0.0632	0.87	0.858	0.733	0.122	0.173
HCC-827	0.86	0.91	1.03	0.962	1.04	0.619	0.6	0.482	0.575	0.832	0.218	0.157		0.18	0.17	0.787	0.743		0.627	0.696
HOP-62	0.865	0.651	0.449	0.619	0.935	0.951	0.967	0.886	0.88	1.01	0.762	0.544	0.731	0.519	0.49	0.869	0.842	0.856	0.758	0.71

Cell Line	relative viability ([1]; first compound 0.4 µM)	relative viability ([1]; first compound 1.265 µM)	relative viability ([1]; first compound 4 µM)	relative viability ([1]; first compound 12.65 µM)	relative viability ([1]; first compound 40 µM)	relative viability ([2]; first compound 0.4 µM)	relative viability ([2]; first compound 1.265 µM)	relative viability ([2]; first compound 4 µM)	relative viability ([2]; first compound 12.65 µM)	relative viability ([2]; first compound 40 µM)	relative viability ([3]; first compound 0.04 µM)	relative viability ([3]; first compound 0.1265 µM)	relative viability ([3]; first compound 0.4 µM)	relative viability ([3]; first compound 1.265 µM)	relative viability ([3]; first compound 4 µM)	relative viability ([4]; first compound 0.04 µM)	relative viability ([4]; first compound 0.1265 µM)	relative viability ([4]; first compound 0.4 µM)	relative viability ([4]; first compound 4 µM)	relative viability ([4]; first compound 1.265 µM)
IA-LM	0.277	0.368	0.353	0.502	0.375															
LC-2-ad	0.538	0.424	0.333	0.426	0.565	1.13		1.02	1	1.06	0.806	0.836	0.791	0.737	0.709	0.716	0.85	0.877	0.763	0.659
LCLC-97TM1	0.148	0.191	0.134	0.185	0.218	0.74	0.679		0.619	0.724	0.304	0.232	0.255	0.184	0.211	0.371	0.553	0.412	0.528	
LCLC-103H	0.662	0.629	0.464	0.508	0.666	1.06	0.936	0.926	0.863	1.06	0.788	0.79	0.763	0.759	0.812	0.431	0.551	0.479	0.406	0.537
NCI-H520	0.262	0.304	0.15	0.294	0.354	0.233	0.255	0.232	0.233	0.206						0.283	0.273	0.297	0.293	
NCI-H522						1.07	1.1	0.789	1.17	1.08	0.731	0.699	0.931	1.04	0.801	0.814	0.704	0.887	0.712	
NCI-H661	0.476	0.478	0.343	0.348	0.38	0.977	0.966	0.928	0.833	0.732						0.689	0.706	0.736	0.69	0.672
NCI-H1299	0.778	0.744	1.02	0.849	0.692															
NCI-H1563	0.559	0.639	0.649	0.605	0.623	0.473	0.523	0.54	0.528	0.541						0.747	0.74	0.732	0.614	0.62
NCI-H1623						0.701	0.504	0.315	0.644	0.503						0.457	0.395	0.359	0.395	0.389
NCI-H1648												0.809	0.762	0.594	0.482		0.255	0.335	0.256	0.195
NCI-H1650	0.692	0.59	0.516	0.589	0.548	0.17	0.192	0.178	0.202	0.191						0.664	0.701	0.412	0.473	0.532
NCI-H1703	0.232	0.217	0.242	0.267	0.233						0.176	0.121	0.121		0.108					
NCI-H2009	0.928	0.827	0.323	0.609	0.795	1.07	1.05		0.944	0.944						0.653	0.678	0.628	0.466	0.55
NCI-H2023	0.25	0.265	0.201	0.255	0.222	0.664	0.633	0.648	0.628	0.732						0.395	0.383	0.324	0.191	0.255
NCI-H2228	0.476	0.398	0.343	0.551	0.557	0.153	0.101	0.152	0.145	0.13						0.526	0.523	0.464	0.221	0.17
NCI-H2342						0.725	0.668	0.625	0.923	0.742	0.516	0.467	0.545	0.39	0.457	0.66	0.648	0.731	0.512	0.666
SK-LU-1	0.65	0.637	0.429	0.695	0.635	0.202	0.176	0.189	0.213	0.227						0.424	0.405	0.405	0.246	
SK-MES-1	0.37	0.309	0.315	0.329	0.366	1	0.906	0.802	0.622	0.788						0.572	0.578	0.621	0.447	0.541
SW 900						0.175	0.175	0.179	0.16	0.177	0.647	0.652	0.616	0.437	0.359	0.757	0.602	0.632	0.37	0.381
SW 1573	0.557	0.594	0.426	0.419	0.513	0.154	0.135	0.222	0.206	0.228						0.749	0.705	0.716	0.289	0.439
